CCOC(=O)C1=C[C@]2(CC)CCCN3CCc4c(n1c1ccccc41)[C@@H]32
solubility (mole fraction)
Conditions | in 2-butanone | in cyclohexane | in ethanol | in ethyl acetate | in isopropanol | in methanol | in methyl acetate | in n-butanol | in n-propanol
283.15 K | 0.00526 | 0.00133 | 0.000492 | 0.0039 | 0.000345 | 0.000378 | 0.00262 | 0.000936 | 0.000727
288.15 K | 0.00649 | 0.0017 | 0.000641 | 0.00481 | 0.000474 | 0.000476 | 0.00329 | 0.00127 | 0.00098
293.15 K | 0.00793 | 0.00216 | 0.00082 | 0.00585 | 0.000643 | 0.000608 | 0.00416 | 0.0017 | 0.00126
298.15 K | 0.00962 | 0.00274 | 0.00101 | 0.00718 | 0.000834 | 0.000736 | 0.00517 | 0.0022 | 0.00164
303.15 K | 0.0118 | 0.00346 | 0.00126 | 0.00879 | 0.00108 | 0.00089 | 0.00646 | 0.00285 | 0.00208
308.15 K | 0.0142 | 0.00433 | 0.00158 | 0.0106 | 0.00137 | 0.0011 | 0.00794 | 0.00374 | 0.00268
313.15 K | 0.017 | 0.00537 | 0.00197 | 0.0127 | 0.00184 | 0.00136 | 0.00973 | 0.0048 | 0.00343
318.15 K | 0.0203 | 0.00656 | 0.00245 | 0.0154 | 0.00245 | 0.00166 | 0.0121 | 0.00632 | 0.00435
323.15 K | 0.0239 | 0.00802 | 0.00302 | 0.0185 | 0.00323 | 0.00204 | 0.0148 | 0.00806 | 0.00528
